Results: patent publication US12485110B2, “Use of ergothioneine for extending lifespan or improving healthspan” (NANJING NUTRABUILDING BIO-TECH CO., LTD., priority 2022, dated 2025)

What was measured:
C. elegans [1] = experiment: Acute toxicity assay; format: in vivo
Description: Making culturing plates with ergothioneine: C. elegans is usually grown in the laboratory using E. coli as a food source. Nematode Growth Medium (NGM) plates have been prepared by aseptically pouring NGM agar into petri plates. Ergothioneine was dissolved in water to make a working solution of 0.5 M and then mixed with E. coli liquid culture before seeding on NGM agar plates. The seeding spots were dried slowly, allowing ergothioneine to diffuse into the food bacteria and the agar for at least 24 hours before worms are introduced. The indicated ergothioneine dosages (0, 640 nM, 3.2 μM, 16 μM, 80 μM, 400 μM, 2 mM, and 10 mM) are based on the total volume of the plates.
The acute toxicity assay tests toxicity in adult worms by simulating the actual conditions of the lifespan assay. […] Second, over time worm deaths are scored to rule out doses that will likely have a negative impact on lifespan despite lacking immediate toxicity. […] Adult worms were monitored in the days immediately following exposure for early lethality or any other obvious defects.
Worms were treated with either vehicle control or ergothioneine at doses spanning a range from […] to 10 mM on media identical to what would be used in the lifespan experiment. […] Worms were examined for immediate toxic effects and then scored intermittently for survival until the start of lifespan experiment in the next step (see example 2 below). […]

C. elegans [2] = experiment: Longevity-focused pathway analysis of differentially expressed genes; format: in vivo
Text: This example describes identification of cellular pathways that are most likely modulated by treatment with Ergothioneine. To accomplish this, the genes differentially expressed after Ergothioneine treatment were first mapped to core established longevity pathways from the literature. Then the mapping was expanded to intersecting and supporting pathways. This placed the transcriptomic data within the context of well-characterized biological pathways, particularly several related to longevity.
Differentially expressed genes (DEGs) were mapped to known physiological pathways and then examined for coherent linkages between pathways related to longevity. These pathways were drawn from WormBase, KEGG, and other published databases and literature. For each condition, the DEGs were filtered on a more relaxed P value cutoff than the initial differential gene expression to capture broad evidence for a pathway from many small changes as opposed to highly significant individual genes of interest. For visualization, pathway genes were given a score based on the fold change weighted by the log of the P value, and this score was color mapped by magnitude and direction to produce the pathway diagram in FIG. 11.
FIG. 11 is a summary of pathway mapping to recognized aging-related pathways for Ergothioneine treatment. Colored score increments indicate degree of up-(red) or down-(blue) regulation weighted by the log of the P value such that each increment approximates one inverse log of P value. Uncolored objects indicate components that were not detected in the data. Top red indicates P value<0.0001 and so on. Solid lines indicate direct pathway connections and dashed lines indicate indirect or multi-step connections. Where lists of differentially expressed genes have been condensed into a module, the number of genes is indicated.
Starting with the canonical longevity pathways, the intersections with supporting pathways was then examined to expand the pool of evidence of whether a pathway is impacted by the treatment.

[3] = Ergothioneine treatment, pathway mapping FIG. 11

`C[N+](C)(C)[C@@H](Cc1c[nH]c(=S)[nH]1)C(=O)[O-]` [Ergo, Ergothioneine] was tested. Which “Early lethality (FIG. 3)” value (C. elegans [1]; 2 mM, upper end of the remaining doses) did it give?
The value was “did not cause early lethality”.

And the “Early lethality (FIG. 3)” value (C. elegans [1]; 10 mM, day 10 post treatment, L4 stage worms, 25° C.)?
The value was “showed an early lethality”.

And the “superoxide dismutase (SOD-2) expression” value (C. elegans [2]; Ergo treatment)?
The value was “slightly decreased expression”.

What about the cpr-1 expression (C. elegans [2]; Ergothioneine treatment, autophagy) of the same molecule?
The cpr-1 expression was “significantly downregulated”.

What about the daf-2 expression (C. elegans [2]; [3]) of the same molecule?
Its daf-2 expression is “slightly downregulated”.

And the daf-16 expression (C. elegans [2]; [3])?
Its daf-16 expression is “slight downregulation”.

What about the “ife-2 (eIF4E) expression” value (C. elegans [2]; [3]) of the same molecule?
The value was “downregulated”.

What about the mtl-1 expression (C. elegans [2]; [3]) of the same molecule?
The mtl-1 expression was “strongly downregulated”.

What about the skn-1 expression (C. elegans [2]; Ergothioneine treatment, stress response) of the same molecule?
Its skn-1 expression is “slight downregulation”.
